These results are taken from US5773439A, “Amido-quinoxalinediones, the preparation and use thereof” (BASF Aktiengesellschaft, priority 1994, dated 1998).

Where only a bound is given, the exact number is not on record here.

The assay has as its system AMPA receptor. The experiment in a line: Binding of 3H-AMPA to rat cerebra membranes. To be noted: for activity compared with the substance of Example 56 in EP 572,852 and compound 16: 3H-AMPA binding; for Ki: displacement of 3H-AMPA, isolated membrane material from rat cerebra. The procedure: The pharmacological activity of the compounds I was investigated in isolated membrane material from rat cerebra. For this purpose, the membrane material was treated in the presence of the compounds according to the invention with the radiolabeled substances ^3 H-2-amino-3-hydroxy-5-methyl-4-isoxazolepropionic acid (^3 H-AMPA) [^3 H]-glycine or [^3 H]-kainate, these binding to specific receptors (AMPA, NMDA or kainate receptors). Subsequently, the radioactivity of the treated membranes was measured by scintillation counting. It was possible to determine from the bound radioactivity the amounts of bound ^3 H-AMPA, [^3 H]-glycine or [^3 H]-kainate, or in each case the amounts of these radiolabeled substances displaced. The dissociation constant KI (I=inhibitor) derived from this is a measure of the displacing action of the agent according to the invention and was found by iterative non-linear regression analysis using the statistical analysis system (SAS) on an IBM computer, similar to the "Ligand" program of P. J. Munson and D. Rodbard (Analytical Biochem. 107, 220 (1980), Ligand: Versatile Computerized Approach for Characterization of Ligand Binding Systems).
1. Binding of ^3 H-2-amino-3-hydroxy-5-methyl-4-isoxazolepropionic acid (^3 H-AMPA)
To prepare the membrane material, freshly removed rat cerebra were homogenized together with 15 times the volume of a buffer solution A comprising 30 mM α,α,α-tris(hydroxymethyl)methylamine hydrochloride (TRIS-HCl) and 0.5 mM ethylenediaminetetraacetic acid (EDTA), pH 7.4, using an Ultra-Turrax®. The suspension was centrifuged at 48,000 g for 20 min. After removal of the supernatant liquid, the protein-containing membrane material contained in the sediment was washed three times by suspension in buffer solution A and subsequent centrifugation at 48,000 g for 20 minutes each time. The membrane material was then suspended in 15 times the volume of buffer solution A and incubated at 37° C. for 30 min. The protein material was subsequently washed twice by centrifugation and suspension and stored at -70° C. until used.
For the binding assay, the protein material was thawed at 37° C. and washed twice by centrifugation at 48,000 g (20 min) and subsequent suspension in a buffer solution B comprising 50 mM TRIS-HCl, 0.1M potassium thiocyanate and 2.5 mM calcium chloride, pH 7.1. Subsequently, 0.25 mg of membrane material, 0.1 μCi of ^3 H-AMPA (60 Ci/mmol) and compound I were dissolved in 1 ml of buffer solution B and incubated on ice for 60 min. The incubated solution was filtered through a CF/B filter (from Whatman) which had previously been treated with a 0.5% strength aqueous solution of polyethyleneimine for at least 2 hours. The membrane residue was subsequently washed with 5 ml of cold buffer solution B in order to separate bound and free ^3 H-AMPA from one another. After measurement of the radioactivity of the bound ^3 H-AMPA in the membrane material by scintillation counting, the KI was determined by regression analysis of the displacement plots.

Regarding `O=C(Nn1c(=O)c(=O)[nH]c2cc(C(F)(F)F)ccc21)c1ccccc1` [Example 1, 1-Benzamido-6-trifluoromethylquinoxaline-2,3(1H,4H)-dione], the Ki (as a rule, a dissociation constant, usually derived from enzyme kinetics or from competition with a known ligand) is less than 10 µM. Where the note is “comparison in words”, the “activity compared with the substance of Example 56 in EP 572,852 and compound 16” value is “more active”.
Regarding `O=C(Nn1c(=O)c(=O)[nH]c2cc(C(F)(F)F)c(-n3cccc3)cc21)c1ccccc1` [Example 29, 1-Benzamido-7-(1-pyrrolyl)-6-trifluoromethylquinoxaline-2,3-(1H,4H)-dione], the Ki is less than 10 µM. In addition, the “activity compared with the substance of Example 56 in EP 572,852 and compound 16” value (comparison in words) was “more active”. Also, the “activity compared with 1-carbamoyl-7-pyrrolylquinoxalinedione (Example 56 in EP 572,852)” value (comparison in words, test not named) is recorded as “distinctly more active”.
